Test results: patent US12077483B2, “Modified amine lipids” (Intellia Therapeutics, Inc., priority 2018, dated 2024)

Columns and labels:
TTR in HUH7 cells = test: In vitro editing in HUH7 cells, LNP with Cas9 mRNA and sgRNA G000502, NGS; assay type: cell-based, human; conditions: Table 14; 2000 ng RNA per well, cells harvested 6 hours post-transfection, biological duplicate, G000502 target locus
Protocol: A series of compounds based on Compound 46 that vary by the inclusion of a C4-12 alkyl at the R^3 position of Formula (IA) (as illustrated in FIG. 13A) were tested for in vitro editing. The human hepatocellular carcinoma cell line […] (Japanese Collection of Research Bioresources Cell Bank, Cat. JCRB0403) was cultured in DMEM media supplemented with 10% fetal bovine serum and 1% Penicillin-Streptomycin. Cells were plated at a density of 20,000 cells/well in a 96-well plate 24 hours prior to transfection (˜80% confluent at time of transfection). The LNPs were formulated at a 1:2 w/w ratio of sgRNA and Cas9 mRNA using the cross flow procedure with lipid molar compositions as described in Table 13 at an N/P ratio of 6.0. LNP compositions were analyzed for average particle size, polydispersity (pdi), total RNA content and encapsulation efficiency of RNA as described in Example 115. Analysis of average particle size, polydispersity (PDI), total RNA content and encapsulation efficiency of RNA are shown in Table 13. LNPs were diluted into media, incubated for 5 minutes at 37 C and pipetted onto cells at a dose of 2000 ng RNA per well. Each condition was assayed in biological duplicate. Cells were harvested post-transfection at 6 hours. Genomic DNA was extracted using 50 μL/well BuccalAmp DNA Extraction solution (Epicentre, Cat. QE09050) according to manufacturer's protocol. All DNA samples were subjected to PCR and subsequent NGS analysis for editing at the G000502 target locus, as described above. As shown in Table 14 and FIG. 13B, all compounds tested were efficacious for in vitro editing.

rat TTR [1] = test: In vivo editing in rat liver, LNP with Cas9 mRNA and sgRNA G534, NGS; conditions: Table 11, Sprague Dawley female rats i.v., liver 6-7 days post dose
Protocol: In brief, to quantitatively determine the efficiency of editing at the target location in the genome, genomic DNA was isolated and deep sequencing was utilized to identify the presence of insertions and deletions introduced by gene editing.
PCR primers were designed around the target site (e.g., B2M), and the genomic area of interest was amplified. Additional PCR was performed according to the manufacturer's protocols (Illumina) to add the necessary chemistry for sequencing. The amplicons were sequenced on an Illumina MiSeq instrument. The reads were aligned to the relevant reference genome (e.g., GRCm38) after eliminating those having low quality scores. The resulting files containing the reads were mapped to the reference genome (BAM files), where reads that overlapped the target region of interest were selected and the number of wild type reads versus the number of reads which contain an insertion, substitution, or deletion was calculated.
The editing percentage (e.g., the “editing efficiency” or “percent editing”) is defined as the total number of sequence reads with insertions or deletions over the total number of sequence reads, including wild type.
To assess lipid efficacy, dose response experiments were performed in vivo. Cas9 mRNA of Example 115 was formulated as LNPs with a gRNA targeting TTR (G00534; SEQ ID NO: 5). These LNPs were formulated, prepared and analyzed as described in Example 115 using a 1:2 w/w ratio of a sgRNA and Cas9 mRNA. Composition analysis for these LNPs are described in Table 10.
For efficacy, Sprague Dawley female rats were dosed i.v. at 0.1 mpk or 0.03 mpk. 6-7 days post dose, rats were euthanized by CO2 asphyxiation. Blood was collected into serum separator tubes. Liver biopsy processed for gDNA and assessed for editing by NGS methods described in Example 115. Results are shown in Table 11 and FIGS. 12A and 12B. For tolerability, Sprague Dawley female rats were dosed at 6 mpk and 24 hours post dose the animals were euthanized by CO2 asphyxiation. Blood was collected into serum separator tubes and sent to an external CRO for quantitation of liver enzymes via a liver enzyme panel.

rat TTR [2] = test: Serum TTR levels in rats after LNP delivery; assay type: in vivo; conditions: Table 11, G534, Sprague Dawley female rats i.v.
mouse TTR gene = test: In vivo editing in mouse liver, LNP with Cas9 mRNA and sgRNA G282, NGS; conditions: G00282, CD-1 female mice i.v., liver; for Mean % Indel: Table 5; for Editing Mean % Indel: Table 7
In short: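 CD-1 female mice, 6-10 weeks old, received one IV tail-vein dose of LNP (amine lipid/DSPC/cholesterol/PEG-2k-DMG, N/P about 6) carrying Cas9 mRNA and TTR-targeting sgRNA G282 at 1:1 w/w, 0.1 mpk unless otherwise noted. Liver editing at day 6 or 7 was the percentage of NGS reads with indels.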

mouse B2M gene = test: In vivo editing in mouse liver, LNP with Cas9 mRNA and sgRNA G650, NGS; conditions: Table 3; guide G650; CD-1 female mice, 0.1 mpk i.v., liver at 6 or 7 days; Exp. 2-7
In short: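 Female CD-1 mice given LNPs (amine lipid/DSPC/cholesterol/PEG-2k-DMG; N/P ~6; sgRNA G650:Cas9 mRNA 1:1 w/w) i.v. at 0.1 mpk unless noted. Liver collected day 6 or 7; B2M editing = indel reads over total reads by amplicon NGS.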

SMILES | Editing (TTR in HUH7 cells) [%] | Editing % Editing (rat TTR [1]; dose 0.03 mpk) [%] | Editing % Editing (rat TTR [1]; dose 0.1 mpk) [%] | Serum TTR (rat TTR [2]; dose 0.03 mpk) [µg/mL] | Serum TTR % TSS (rat TTR [2]; dose 0.03 mpk) [% TSS] | Serum TTR (rat TTR [2]; dose 0.1 mpk) [µg/mL] | Serum TTR % TSS (rat TTR [2]; dose 0.1 mpk) [% TSS] | Mean % Indel (mouse TTR gene; dose 0.1 mpk) [%] | Mean % Indel (mouse TTR gene; dose 0.3 mpk) [%] | Editing Mean % Indel (mouse TTR gene; dose 0.1 mpk) [%] | Editing Mean % Indel (mouse TTR gene; dose 0.3 mpk) [%] | Editing Mean % Indel (mouse B2M gene) [%]
CCCCC/C=C\C/C=C\CCCCCCCC(=O)OCC(COC(=O)CCC(OCCCCCCCC)OCCCCCCCC)COC(=O)OCCCN(CC)CC (stereo not shown) [Compound 49, 3-((4,4-bis(octyloxy)butanoyl)oxy)-2-((((3-(diethylamino)propoxy)carbonyl)oxy)methyl)propyl (9Z,12Z)-octadeca-9,12-dienoate, reference compound] | 22.6 | 4.76 | 25.62 | 790.9 | 94 | 669.5 | 79 | 26.8 | 60.6 | 50.0 | 67.7 | 
CCCCC/C=C\C/C=C\CCCCCCCC(=O)OCC(COC(=O)CCCCCCC/C=C\C/C=C\CCCCC)OC(=O)CCC(CCCCCC)OC(=O)NCCN1CCCC1 (racemic) [Compound 50, 2-((4-(((2-(pyrrolidin-1-yl)ethyl)carbamoyl)oxy)decanoyl)oxy)propane-1,3-diyl (9Z,9′Z,12Z,12′Z)-bis(octadeca-9,12-dienoate)] | 64.3 | 26.9 | 62.6 | 581.7 | 69 | 116.6 | 14 |  |  |  |  | 
CCCCC/C=C\C/C=C\CCCCCCCC(=O)OCC(COC(=O)CCCCCCC/C=C\C/C=C\CCCCC)OC(=O)CCC(CCCCCCCC)OC(=O)NCCN(C)CC (stereo not shown) [Compound 34, 2-((4-(((2-(ethyl(methyl)amino)ethyl)carbamoyl)oxy)dodecanoyl)oxy)propane-1,3-diyl (9Z,9′Z,12Z,12′Z)-bis(octadeca-9,12-dienoate)] | 49.0 | 21.22 | 53.9 | 514.2 | 61 | 188.9 | 22 |  |  | 54.9 | 68.3 | 44.8
